Source: BigSolDB 2.1

CCCCCc1ccc2c(c1)C(=O)c1ccccc1C2=O
solubility (mole fraction)
Details | 288.15 K | 293.15 K | 298.15 K | 303.15 K | 308.15 K | 313.15 K | 318.15 K | 323.15 K
in 2-butanone | 0.0341 | 0.0431 | 0.0513 | 0.0587 | 0.0683 | 0.0828 | 0.105 | 0.129
in MIBK | 0.0433 | 0.0539 | 0.0601 | 0.0676 | 0.0744 | 0.0836 | 0.104 | 0.126
in acetone | 0.0225 | 0.0299 | 0.0376 | 0.0443 | 0.0517 | – | 0.0815 | 0.105
in acetonitrile | 0.00299 | 0.00478 | 0.00811 | 0.0127 | 0.0203 | – | 0.051 | 0.0786
in ethanol | 0.0029 | 0.00392 | 0.00531 | 0.00725 | 0.00988 | 0.0145 | 0.0195 | 0.0265
in ethyl acetate | 0.0501 | 0.0583 | 0.0663 | 0.0761 | 0.088 | 0.101 | 0.12 | 0.151
in isopropyl acetate | 0.0522 | 0.0598 | 0.0708 | 0.0842 | 0.0974 | 0.114 | 0.137 | 0.163
in methanol | 0.00131 | 0.00199 | 0.00271 | 0.00364 | 0.00502 | 0.00682 | 0.00928 | 0.0131
in n-butanol | 0.00826 | 0.0111 | 0.0154 | 0.021 | 0.0275 | 0.0346 | 0.0446 | 0.0626
in n-propanol | 0.00541 | 0.00743 | 0.0102 | 0.0144 | 0.02 | 0.0265 | 0.0346 | 0.049
in sec-butanol | 0.00259 | 0.00378 | 0.0056 | 0.00842 | 0.012 | 0.0182 | 0.0257 | 0.0388
